We go through seven compounds from article PMC10186366 (ACS Pharmacology & Translational Science, 2023).

Like-named read-outs stand apart in the source and are kept apart here.

The test system of data set [1] is RT16 CHO cells (expresses only human FRα). Briefly: Cell proliferation assay, RT16 CHO subline. In kind it is cell-based, Chinese hamster. The text has this: (§1) We used a unique panel of engineered Chinese hamster ovary (CHO) sublines derived from a transporter-null MTXRIIOua^R2-4 CHO subline (R2) and designed to individually express human FRα (RT16), FRβ (D4), RFC (PC43-10), or PCFT (R2/PCFT).[39]−[42] As the CHO sublines are isogenic and differ only in the presence or absence of the human folate transporters, differences in the extent of inhibition of cell proliferation between the cell lines upon treatment with the various compounds provide a robust readout of transport specificities.[25],[26],[29],[30],[43]
(§2) The CHO sublines were treated for 96 h with a range of drug concentrations up to 1000 nM; cell viabilities were measured with a fluorescence assay.[26] […] As a control, we used transporter-null R2 cells.[42] To extend studies to human tumor cells, we also performed experiments in RFC-, PCFT-, and FRα-expressing KB tumor cells.[44] To confirm the contribution of FR-mediated uptake to antitumor activity, for KB cells, we added 200 nM folic acid, which inhibits FR uptake by direct competition without effects on either RFC or PCFT.[25],[26],[28]−[30],[43]
(§3) The MTXRIIOua^R2-4 RFC-, PCFT-, and FRα-null Chinese hamster ovary (CHO) cell line (R2) was a gift from Dr. Wayne Flintoff (University of Western Ontario).[40],[42] Isogenic CHO cell lines were subsequently derived from R2 cells by transfection with RFC, PCFT, or FRα cDNAs to generate PC43-10 (expresses only human RFC), R2/PCFT4 (expresses only human PCFT), RT16 (expresses only human FRα), and D4 (expresses only human FRβ).[25],[26],[39]
(§4) The CHO sublines were cultured in α-minimal essential medium (α-MEM) supplemented with 100 U/mL penicillin/100 μg/mL streptomycin, 2 mM L-glutamine, and 10% bovine calf serum (Sigma-Aldrich). For the PC43-10, R2/PCFT4, RT16, and D4 sublines, 1.5 mg/mL G418 was also added. Seventy-two hours prior to in vitro proliferation assays (below), RT16 and D4 CHO cells were grown in folate-free RPMI with dialyzed fetal bovine serum (DFBS) (Invitrogen) supplemented with 100 U/mL penicillin/[…] streptomycin and 2 mM L-glutamine. FRα-expressing KB nasopharyngeal carcinoma cells were acquired from the American Type Culture Collection (Manassas, VA); cells were grown in complete folate-free RPMI 1640 supplemented with 10% fetal bovine serum, 100 U/mL penicillin/100 μg/mL streptomycin, and 2 mM L-glutamine. Cell lines were authenticated by STR analysis (Genetica DNA Laboratories, Burlington, NC) and tested for Mycoplasma by PCR (Venor GeM Mycoplasma Detection Kit, Sigma). Frozen stocks were generated from authenticated Mycoplasma-free cultures.
(§5) Cell proliferation assays used CHO and KB cells cultured in folate-free-RPMI 1640 media with 10% DFBS, 2 mM L-glutamine, and 100 U/mL penicillin/100 μg/mL streptomycin supplemented with 2 nM (KB, RT16, D4) or 25 nM (R2, PC43-10, R2/PCFT4) leucovorin.[25],[26],[30] Parallel incubations with 200 nM folic acid were performed in viability assays to confirm FR-mediated drug uptake. Cells were plated in 96-well dishes at 2500–5000 cells/well in 200 μL media and treated with a range of C1 inhibitors spanning 0 to 1 μM. Cells were treated at 37 ° C with 5% CO2, and numbers were assayed after 96 h using CellTiter-blue (Promega, Madison, WI) and a fluorescence plate reader.[25],[26]

In data set [2] the test system is D4 CHO cells (expresses only human FRβ). Briefly: Cell proliferation assay, D4 CHO subline. In kind it is cell-based, Chinese hamster. The note with it: 96 h, 2 nM leucovorin, mean (standard error).
From the text: as §1, §2, §3, §4, §5

The test system of data set [3] is R2/PCFT4 CHO cells (expresses only human PCFT). Briefly: Cell proliferation assay, R2/PCFT4 CHO subline. In kind it is cell-based, Chinese hamster. The settings on record: 96 h, 25 nM leucovorin, mean (standard error).
From the text: as §1, §2, §3, §4, §5

The test system of data set [4] is KB human tumor cells (RFC/FRα/PCFT). Briefly: Cell proliferation assay, KB tumor cells (with or without 200 nM folic acid). The note with it: 96 h, 2 nM leucovorin, no folic acid, mean (standard error). In kind it is cell-based. Here is the method: as §2, §4, §5
The target in data set [5] is T1, human GARFTase (Homo sapiens, UniProt P22102).
T1 construct: GARFTase (formyltransferase domain; residues 808–1010); made in house; host or cells: E. coli Rosetta (DE3)pLysS
T1 sequence (P22102 808-1010): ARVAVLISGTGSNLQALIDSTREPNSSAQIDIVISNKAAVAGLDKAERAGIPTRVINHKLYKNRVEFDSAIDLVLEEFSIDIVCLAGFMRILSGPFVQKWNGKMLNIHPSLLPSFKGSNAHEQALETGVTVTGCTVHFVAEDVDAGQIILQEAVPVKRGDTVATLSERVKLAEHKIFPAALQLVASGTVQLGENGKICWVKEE
In words: In vitro GARFTase enzyme assay (THF formation from 10-CHOTHF). In kind it is biochemical.
Procedure: We directly tested inhibition potencies by in vitro assays using purified GARFTase and ATIC (AICARFTase) to calculate inhibition dissociation constants (Ki’s) (Table 2).[45]
Isopropyl β-D-1-thiogalactopyranoside (500 μM) was added, and the cells were incubated at 20 °C for 16–18 h. The cultures were pelleted and resuspended in 40 mL of 25 mM Tris–HCl, pH 7.5, 300 mM NaCl, 5 mM β-mercaptoethanol (β-ME), 10 mM CaCl2, 10 mM MgCl2, 40 mg lysozyme, and 8 U DNAse I (Sigma). The cells were lysed by emulsification.
His-GARFTase was purified from the lysate by ÄKTA FPLC (GE Healthcare) with a Ni-NTA column (Qiagen, Valencia, CA).[48] The column was washed with 5 column volumes (CV) of 25 mM Tris–HCl, pH 8, 300 mM NaCl, 10% glycerol, and 5 mM β-ME. His-GARFTase was eluted with a 0 to 75% gradient of 25 mM Tris–HCl, pH 8, 300 mM NaCl, 10% glyercol, 300 mM imidazole, and 5 mM β-ME over 10 CV. Further purification involved size exclusion chromatography on a Superdex 75 16/60 (GE Healthcare) column with 25 mM Tris–HCl, pH 8, 10 mM β-ME, and 300 mM NaCl. Purified His-GARFTase was stored at 90 μM in 20% glycerol at −80 °C.
GARFTase catalytic activity was measured by monitoring THF formation from 10-CHOTHF.[32],[45],[48] […] Initial slopes were graphed against inhibitor concentrations and fit to a three-parameter nonlinear regression to calculate IC50 values for each compound (GraphPad Prism 8.0). […] Inhibition constants (Ki’s) were calculated from the IC50 values using the equation Ki = IC50/([S]/KM + 1) and the Km and substrate concentration for THF.

[6] abbreviates: Homo sapiens, RT16, 96 h, 2 nM leucovorin, mean (standard error).
Where [7] appears, read: monoglutamyl antifolates, mean (standard error), at least three replicate assays, tested up to 150 μM, read-out: GARFTase Ki.
[8] abbreviates: Homo sapiens, RT16; 96 h, 2 nM leucovorin; mean (standard error).

Turning to `Nc1nc2sc(CCCc3csc(C(=O)N[C@@H](CCC(=O)O)C(=O)O)c3F)cc2c(=O)[nH]1` [Compound 8, (4-(3-(2-Amino-4-oxo-3,4-dihydrothieno[2,3-d]pyrimidin-6-yl)propyl)-3-fluorothiophene-2-carbonyl)-L-glutamic Acid], the 50% inhibitory concentration (IC50) in data set [1] (setting [6]) was 1.96 nM; in data set [2] it was 0.26 nM; in data set [3] it was over 1000 nM; in data set [4], 6.84 nM. Also, the inhibition constant (Ki) in data set [5] (setting [7]) stood at 3100 nM.
On to `Nc1nc2sc(CCCCc3ccc(C(=O)N[C@@H](CCC(=O)O)C(=O)O)nc3)cc2c(=O)[nH]1` [Compound 4, (5-(4-(2-Amino-4-oxo-3,4-dihydrothieno[2,3-d]pyrimidin-6-yl)butyl)picolinoyl)-L-glutamic Acid], for which the 50% inhibitory concentration (IC50) was 0.94 nM in data set [1] (setting [8]), 60.8 nM in data set [2], 318 nM in data set [3] and 2.11 nM in data set [4]. Moreover, the Ki in data set [5] is over 150000 nM.
`Nc1nc2sc(CCCc3ccc(C(=O)N[C@@H](CCC(=O)O)C(=O)O)c(F)c3)cc2c(=O)[nH]1` [Compound 6, (4-(3-(2-Amino-4-oxo-3,4-dihydrothieno[2,3-d]pyrimidin-6-yl)propyl)-2-fluorobenzoyl)-L-glutamic Acid] returned a melting point of 128 to 129.8 °C. The compound further returned an IC50 in data set [1] (setting [6]) of 1.07 nM. The same compound displayed an IC50 in data set [2] of 0.48 nM. Half-maximal inhibition in data set [3] (IC50) was put at 591 nM. Moreover, the midpoint of inhibition in data set [4], the IC50, lay at 7.19 nM. The Ki in data set [5] (setting [7]) is over 150000 nM.
Compound `Nc1nc2sc(CCCCc3cccc(C(=O)N[C@@H](CCC(=O)O)C(=O)O)n3)cc2c(=O)[nH]1` [Compound 3, (6-(4-(2-Amino-4-oxo-3,4-dihydrothieno[2,3-d]pyrimidin-6-yl)butyl)picolinoyl)-L-glutamic Acid] came in with a melting point of 125.8 to 126.2 °C. The compound also gave an IC50 in data set [1] (96 h, 2 nM leucovorin; mean (standard error)) of 24.7 nM. For the same compound, the concentration for half-maximal inhibition (IC50) in data set [1] (setting [6]) stood at 25 nM. Moreover, 41.9 nM corresponded to half-maximal inhibition in data set [2] (IC50). This compound gave an IC50 in data set [3] of over 1000 nM. Besides, in data set [5] (setting [7]), the inhibitory constant (Ki) was determined as 26700 nM.
`Nc1nc2sc(CCCCc3cnc(C(=O)N[C@@H](CCC(=O)O)C(=O)O)c(F)c3)cc2c(=O)[nH]1` [Compound 5, (5-(4-(2-Amino-4-oxo-3,4-dihydrothieno[2,3-d]pyrimidin-6-yl)butyl)-3-fluoropicolinoyl)-L-glutamic Acid] showed a melting point of 128 to 129.7 °C. For the same compound, the concentration for half-maximal inhibition (IC50) in data set [1] (setting [6]) came out at 1.23 nM. The same compound yielded an IC50 in data set [2] of 0.25 nM. In data set [3], this compound had an IC50 of 344 nM. For the same compound, inhibition in data set [4] was half-maximal at 5.05 nM (IC50). Moreover, the inhibition constant Ki in data set [5] (setting [7]) was 13700 nM.
Compound `Nc1nc2sc(CCCCc3ccc(C(=O)N[C@@H](CCC(=O)O)C(=O)O)c(F)c3)cc2c(=O)[nH]1` [Compound 7, (4-(4-(2-Amino-4-oxo-3,4-dihydrothieno[2,3-d]pyrimidin-6-yl)butyl)-2-fluorobenzoyl)-L-glutamic Acid] yielded a melting point of 121.7 to 122.6 °C. The compound also had an IC50 in data set [1] (setting [6]) of 2.27 nM. In addition, the half-maximal inhibitory concentration (IC50) in data set [2] was determined as 1.14 nM. Moreover, the half-maximal inhibitory concentration (IC50) in data set [3] is over 1000 nM. This compound also displayed an IC50 in data set [4] of 5.27 nM. In data set [5] (setting [7]), the Ki was over 150000 nM.
Take `Nc1nc2sc(CCCCc3csc(C(=O)N[C@@H](CCC(=O)O)C(=O)O)c3F)cc2c(=O)[nH]1` [Compound 9, (4-(4-(2-Amino-4-oxo-3,4-dihydrothieno[2,3-d]pyrimidin-6-yl)butyl)-3-fluorothiophene-2-carbonyl)-L-glutamic Acid]: the melting point fell in the range of 142.3 to 143.5 °C. It took 1.29 nM to reach half-maximal inhibition in data set [1] (setting [8]) (IC50). The compound also gave a half-inhibitory concentration (IC50) in data set [2] of 0.48 nM. Besides, 167 nM corresponded to half-maximal inhibition in data set [3] (IC50). For the same compound, in data set [4], it took 2.63 nM to reach half-maximal inhibition (IC50). Besides, the Ki in data set [5] came out at 170 nM. Besides, in data set [5] (ratio of Ki values), the “GARFTase potency of 9 relative to 2” value was determined as 17 fold and the “GARFTase potency of 9 relative to 10” value came out at 25 fold.

In general, IC50 refers to the midpoint of a concentration-inhibition curve. Broadly, the Ki is a measure of affinity in units of concentration, obtained from inhibition or displacement. Broadly, the melting point is the temperature, or range, at which the solid turns liquid.
